Assay results taken from the NIST ThermoML archive (doi:10.1016/j.jct.2010.05.002).

Assay: molar heat capacity at constant pressure
Settings: 101.33 kPa, Crystal, Vacuum adiabatic calorimetry

CC(C)(C)c1ccc(-c2ccccc2)cc1 [4-(1,1-dimethylethyl)-1,1'-biphenyl]
Settings | molar heat capacity at constant pressure [J/K/mol]
8.3 K | 2.522
8.57 K | 2.757
9.11 K | 3.228
9.63 K | 3.765
9.89 K | 4.01
11.01 K | 5.257
11.39 K | 5.703
11.77 K | 6.312
12.15 K | 6.72
12.53 K | 7.182
12.92 K | 7.664
13.28 K | 8.377
13.65 K | 8.833
14.02 K | 9.436
14.39 K | 9.935
14.75 K | 10.39
15.11 K | 10.96
15.48 K | 11.37
15.83 K | 12.26
16.19 K | 12.78
16.55 K | 13.21
16.91 K | 13.77
17.27 K | 14.49
17.62 K | 15.23
17.98 K | 15.86
18.33 K | 16.18
18.68 K | 16.71
19.03 K | 16.98
19.38 K | 17.88
19.73 K | 18.48
20.08 K | 19.01
20.76 K | 20.23
21.53 K | 21.57
22.31 K | 22.77
23.08 K | 23.92
23.85 K | 25.18
24.62 K | 26.43
25.38 K | 27.38
26.14 K | 28.32
26.9 K | 30.11
27.66 K | 31.35
28.42 K | 32.53
29.17 K | 33.54
29.93 K | 34.42
30.68 K | 35.96
31.43 K | 37.32
32.19 K | 38.43
32.96 K | 38.73
33.71 K | 40.37
34.46 K | 41.38
35.21 K | 42.08
35.96 K | 43.44
36.71 K | 44.59
37.46 K | 45.86
38.21 K | 46.57
38.96 K | 47.65
39.71 K | 48.45
40.46 K | 49.16
41.21 K | 50.62
41.95 K | 51.64
42.7 K | 52.5
43.45 K | 53.06
44.2 K | 53.77
44.95 K | 55.03
45.69 K | 55.67
46.44 K | 57.1
47.19 K | 57.29
47.93 K | 58.61
48.68 K | 59.76
49.43 K | 60.29
50.18 K | 60.84
50.92 K | 61.9
51.67 K | 62.56
52.42 K | 63.33
53.16 K | 64.3
53.91 K | 65.39
54.65 K | 65.94
55.4 K | 66.72
56.14 K | 67.31
56.89 K | 68.21
57.64 K | 68.36
58.38 K | 69.38
59.12 K | 69.98
59.86 K | 70.84
60.61 K | 71.8
61.35 K | 72.22
62.09 K | 73.3
62.83 K | 73.97
63.57 K | 75.16
64.31 K | 75.92
65.06 K | 76.6
65.8 K | 77.49
66.54 K | 77.97
67.27 K | 79.07
68.02 K | 79.18
68.76 K | 79.62
69.49 K | 80.06
70.22 K | 80.55
71.11 K | 81.26
72.16 K | 81.97
73.2 K | 83.77
74.24 K | 85.78
75.29 K | 87.62
76.33 K | 89.61
77.37 K | 91.7
78.41 K | 93.86
78.6 K | 93.38
79.46 K | 95.29
79.89 K | 95.59
80.5 K | 96.68
80.92 K | 97.16
81.55 K | 97.38
81.96 K | 98.92
82.59 K | 99.16
82.99 K | 99.71
83.63 K | 100.81
84.02 K | 101.38
84.67 K | 102.6
85.05 K | 103.37
85.71 K | 104.76
86.08 K | 105.1
87.11 K | 107.71
88.14 K | 109.06
89.18 K | 109.08
90.21 K | 110.43
91.24 K | 111.94
92.26 K | 112.49
93.29 K | 113.67
94.32 K | 115.2
95.34 K | 116.2
96.36 K | 117.24
97.39 K | 117.75
98.41 K | 119.69
99.44 K | 121.4
100.46 K | 120.13
101.48 K | 122.02
102.5 K | 123.38
103.53 K | 123.38
104.55 K | 124.78
105.57 K | 125.7
106.59 K | 125.94
107.6 K | 126.55
108.62 K | 127.46
109.63 K | 129.07
110.65 K | 130.3
111.66 K | 130.29
112.67 K | 130.99
113.68 K | 131.82
114.69 K | 132.86
115.71 K | 133.48
116.72 K | 133.98
117.73 K | 134.55
118.74 K | 135.11
119.75 K | 136.16
120.76 K | 136.83
121.76 K | 137.18
122.77 K | 138
123.77 K | 138.81
124.78 K | 139.92
125.78 K | 140.34
126.79 K | 141.2
127.78 K | 141.96
128.78 K | 142.63
129.78 K | 143.1
130.78 K | 144.73
131.78 K | 145.34
132.78 K | 145.71
133.78 K | 146.29
134.78 K | 147.05
135.77 K | 147.52
136.77 K | 148.34
137.77 K | 149.37
138.76 K | 149.38
139.75 K | 150.91
140.74 K | 152.15
141.74 K | 153
142.73 K | 153.45
143.7 K | 153.84
144.69 K | 154.76
145.68 K | 154.88
146.67 K | 155.86
147.65 K | 157.44
148.64 K | 158.13
149.63 K | 159.37
150.61 K | 159.11
151.59 K | 161.68
152.58 K | 161.75
153.56 K | 162.27
154.54 K | 162.57
155.52 K | 163.19
